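These data come from cells grown in 96-well plates and exposed to compound for 48 hours at five concentrations. Here, GI50 denotes the concentration required for 50% inhibition of growth.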 The source made the active and inactive calls. No stated cut-off is given here; in the data, active = GI50 up to about 1.1 µM and inactive = higher.
Columns and labels:
Experiment in all cases: inhibition of tumour cell growth, NCI panel, 48 h
DLD-1 = test system: DLD-1
DMS-114 = test system: DMS-114
SNB-78 = test system: SNB-78
M19-MEL = test system: M19-MEL
XF498 = test system: XF498
HOP-18 = test system: HOP-18
LXFL 529 = test system: LXFL 529
DMS-273 = test system: DMS-273
RXF 631 = test system: RXF 631

Measured: GI50

O=C(CSc1ncnc2[nH]cnc12)c1ccccc1
inactive: DLD-1 > 100 µM | DMS-114 > 100 µM | SNB-78 > 100 µM | M19-MEL > 100 µM | XF498 > 100 µM | HOP-18 > 100 µM | LXFL 529 > 100 µM | DMS-273 > 100 µM

COC(=O)Cc1cc(=O)n2c3ccccc3n(C)c2c1C#N
inactive: DLD-1 > 100 µM | DMS-114 > 100 µM | SNB-78 > 100 µM | M19-MEL > 100 µM | XF498 > 100 µM | DMS-273 > 100 µM

COC1OC(CO)C(O)C(NC(=O)N(C)N=O)C1O (stereo not drawn)
inactive: DLD-1 > 100 µM | DMS-114 > 100 µM | SNB-78 > 100 µM | M19-MEL > 100 µM | XF498 > 100 µM | HOP-18 > 100 µM | LXFL 529 > 100 µM | DMS-273 > 100 µM

COC1(OC)C2(Cl)C(Cl)=C(Cl)C1(Cl)C1C=CC=CC12 (stereo not drawn)
inactive: DLD-1 67.5 µM | DMS-114 42.4 µM | SNB-78 > 100 µM | M19-MEL 44.9 µM | XF498 46.6 µM | RXF 631 13.1 µM | LXFL 529 > 100 µM | DMS-273 60.8 µM

Cn1nc(-c2ccccc2)c(C(=O)/C=C/c2ccc(Cl)cc2)c(N2CCOCC2)c1=O
inactive: DLD-1 2.96 µM | DMS-114 2.78 µM | M19-MEL 5.24 µM | HOP-18 4.48 µM | RXF 631 4.79 µM | LXFL 529 2.92 µM | DMS-273 3.3 µM

COc1ccc(C(=O)C(C(=O)C(=O)Nc2nc3ccc(OC)cc3s2)c2ccc(OC)cc2)cc1 (stereo not drawn)
inactive: DLD-1 > 100 µM | DMS-114 90.2 µM | SNB-78 > 100 µM | M19-MEL > 100 µM | XF498 > 100 µM | HOP-18 90.6 µM | RXF 631 > 100 µM | LXFL 529 > 100 µM | DMS-273 > 100 µM

COc1ccc(C(=O)NCCN(C)C)c2nc3ccccc3nc12
inactive: DLD-1 4.23 µM | DMS-114 3.39 µM | SNB-78 3.72 µM | M19-MEL 3.15 µM | HOP-18 > 30.8 µM | RXF 631 9.12 µM | LXFL 529 6.7 µM | DMS-273 4.6 µM

COc1ccc(N2C(=O)[C@@H](N=[N+]=[N-])[C@@H]2[C@H]2COC(C)(C)O2)cc1
inactive: DMS-114 > 100 µM | SNB-78 > 100 µM | M19-MEL > 100 µM | HOP-18 > 100 µM | LXFL 529 > 100 µM | DMS-273 > 100 µM

CN(C)CCNC(=O)c1cccc2nc3cc(Cl)ccc3nc12
inactive: DLD-1 2.68 µM | DMS-114 1.83 µM | SNB-78 2.65 µM | M19-MEL 1.8 µM | HOP-18 17.5 µM | LXFL 529 2.14 µM | DMS-273 1.98 µM

c1ccc2cc3[s+]snc3cc2c1
inactive: DLD-1 > 100 µM | SNB-78 > 100 µM | M19-MEL > 100 µM | XF498 > 100 µM | HOP-18 > 100 µM | RXF 631 > 100 µM | LXFL 529 85.1 µM | DMS-273 > 100 µM

COc1cccc(NC(=O)CC(=O)N2N=C(N(CCC#N)c3ccccc3C)CC2c2ccccc2)c1 (stereo not drawn)
inactive: DLD-1 > 100 µM | DMS-114 > 100 µM | SNB-78 > 100 µM | M19-MEL > 100 µM | HOP-18 > 100 µM | RXF 631 > 100 µM | LXFL 529 > 100 µM | DMS-273 > 100 µM

N#CC(C(=O)CCCC(=O)Nc1ccc(Cl)cc1Cl)c1ccc(Cl)cc1 (stereo not drawn)
inactive: DLD-1 > 100 µM | SNB-78 > 100 µM | XF498 > 100 µM | HOP-18 31.7 µM | RXF 631 > 100 µM | LXFL 529 > 100 µM | DMS-273 > 100 µM

N#C/C(=C\c1ccccc1O)C(N)=O
inactive: DLD-1 70.1 µM | DMS-114 44.6 µM | SNB-78 46 µM | M19-MEL > 100 µM | XF498 28.1 µM | RXF 631 > 100 µM | LXFL 529 72.8 µM | DMS-273 > 100 µM

CC(N)Cc1ccc(C(=O)Cl)cc1 (stereo not drawn)
inactive: DLD-1 > 100 µM | DMS-114 > 100 µM | M19-MEL > 100 µM | XF498 > 100 µM | RXF 631 > 100 µM | LXFL 529 > 100 µM

CN(C)C(=S)/N=c1\ss/c(=N\S(=O)(=O)c2ccccc2)n1C
inactive: DLD-1 > 100 µM | DMS-114 > 100 µM | SNB-78 > 100 µM | M19-MEL > 100 µM | XF498 > 100 µM | HOP-18 > 100 µM | LXFL 529 > 100 µM | DMS-273 > 100 µM

Nc1ccn(CCOC(=O)c2ccccc2)c(=O)n1
inactive: DLD-1 > 100 µM | SNB-78 > 100 µM | HOP-18 > 100 µM | RXF 631 > 100 µM | LXFL 529 > 100 µM | DMS-273 > 100 µM

Nc1ncnc2c1ncn2C1OC(CSCC(F)(F)F)C(O)C1O (stereo not drawn)
inactive: DLD-1 > 100 µM | SNB-78 > 100 µM | M19-MEL > 100 µM | XF498 > 100 µM | HOP-18 > 100 µM | LXFL 529 > 100 µM | DMS-273 > 100 µM

CCOC(=O)N1C(c2ccccc2)C=CC(c2ccccc2)N1C(=O)OCC (stereo not drawn)
inactive: DLD-1 > 100 µM | DMS-114 > 100 µM | SNB-78 > 100 µM | M19-MEL > 100 µM | XF498 > 100 µM | HOP-18 > 100 µM

OCCc1cnco1
inactive: DLD-1 > 100 µM | DMS-114 > 100 µM | SNB-78 > 100 µM | M19-MEL > 100 µM | HOP-18 > 100 µM | LXFL 529 > 100 µM | DMS-273 63.8 µM

O=C(O)CNc1c2ccccc2[n+]([O-])c2ccccc12
inactive: DLD-1 87.3 µM | DMS-114 47.9 µM | SNB-78 > 100 µM | M19-MEL > 100 µM | HOP-18 36.1 µM | RXF 631 > 100 µM | LXFL 529 34.6 µM | DMS-273 81.8 µM

CN1C(=O)C2C3C=C4c5ccccc5N(c5ccccc5)C4(C2C1=O)[C@H]1C(=O)N(C)C(=O)[C@@H]31 (stereo partly drawn)
inactive: DLD-1 > 100 µM | DMS-114 66.4 µM | M19-MEL > 100 µM | XF498 > 100 µM | LXFL 529 > 100 µM

[N-]=[N+]=NC(CBr)c1cn([C@H]2C[C@H](O)[C@@H](CO)O2)c(=O)[nH]c1=O (stereo partly drawn)
inactive: DLD-1 > 100 µM | DMS-114 > 100 µM | SNB-78 > 100 µM | M19-MEL > 100 µM | HOP-18 1.99 µM | LXFL 529 > 100 µM | DMS-273 > 100 µM
